From patent US9655902B2, “Guanidine derivatives for the treatment of hepatitis C” (priority 2013, dated 2017)
Where two headings read alike, the source gives them in different places.

Test system: HCV pseudoparticles (genotype 1a HCV E1 and E2 envelope, H77C isolate)
Test: HCV pseudoparticle infection assay (luciferase reporter, Huh7 cells)
Type: cell-based, HCV genotype 1a
Conditions: Hepatitis C virus, Huh-7, 48 h, read-out: EC50 (1a, nM), genotype 1a HCV pseudoparticles, Huh7 cells, luciferase 2 days after infection

Row | Structure (SMILES) | EC50 (class symbol) | EC50 (numeric value)
1 | N=C(N)N1CCCN(C(=O)c2ccc(Nc3nc(NC4(c5ccc(Cl)cc5)CC4)nc(OCC(F)(F)F)n3)cc2)CC1 [Compound 1001, 4-(4-(4-(1-(4-chlorophenyl)cyclopropylamino)-6-(2,2,2-trifluoroethoxy)-1,3,5-triazin-2-ylamino)benzoyl)-1,4-diazepane-1-carboximidamide] | 0.01 to 10 nM | 
2 | N=C(N)NCCC[C@@H](NC(=O)c1ccc(Nc2nc(NC3(c4ccc(Cl)cc4)CC3)nc(OCC(F)(F)F)n2)cc1)C(=O)O [Compound 1002, (R)-2-(4-(4-(1-(4-chlorophenyl)cyclopropylamino)-6-(2,2,2-trifluoroethoxy)-1,3,5-triazin-2-ylamino)benzamido)-5-guanidinopentanoic acid] | 0.01 to 10 nM | 
3 | N=C(N)NCCC[C@H](NC(=O)c1ccc(Nc2nc(NC3(c4ccc(Cl)cc4)CC3)nc(OCC(F)(F)F)n2)cc1)C(=O)O [Compound 1003, (S)-2-(4-(4-(1-(4-chlorophenyl)cyclopropylamino)-6-(2,2,2-trifluoroethoxy)-1,3,5-triazin-2-ylamino)benzamido)-5-guanidinopentanoic acid] | 0.01 to 10 nM | 0.711 nM
4 | N=C(N)N1CCCN(C(=O)c2ccc(Nc3nc(NCc4ccc(Cl)cc4)nc(OCC(F)(F)F)n3)cc2)CC1 [Compound 1004, 4-(4-(4-(4-chlorobenzylamino)-6-(2,2,2-trifluoroethoxy)-1,3,5-triazin-2-ylamino)benzoyl)-1,4-diazepane-1-carboximidamide] | 10 to 1000 nM | 
5 | N=C(N)NCCCCNC(=O)c1ccc(Nc2nc(NCc3ccc(Cl)cc3)nc(OCC(F)(F)F)n2)cc1 [Compound 1005, 4-(4-(4-chlorobenzylamino)-6-(2,2,2-trifluoroethoxy)-1,3,5-triazin-2-ylamino)-N-(4-guanidinobutyl)benzamide] | 10 to 1000 nM | 29.5 nM
6 | N=C(N)NCCC[C@@H](NC(=O)c1ccc(Nc2nc(NCc3ccc(Cl)cc3)nc(OCC(F)(F)F)n2)cc1)C(=O)O [Compound 1006, (R)-2-(4-(4-(4-chlorobenzylamino)-6-(2,2,2-trifluoroethoxy)-1,3,5-triazin-2-ylamino)benzamido)-5-guanidinopentanoic acid] | 10 to 1000 nM | 
7 | N=C(N)NCCC[C@H](NC(=O)c1ccc(Nc2nc(NCc3ccc(Cl)cc3)nc(OCC(F)(F)F)n2)cc1)C(=O)O [Compound 1007, (S)-2-(4-(4-(4-chlorobenzylamino)-6-(2,2,2-trifluoroethoxy)-1,3,5-triazin-2-ylamino)benzamido)-5-guanidinopentanoic acid] | 10 to 1000 nM | 
8 | NC(=O)/N=C(\NC1CCCC1)N1CCN(C(=O)c2ccc(Nc3nc(NC4(c5ccc(Cl)cc5)CC4)nc(OCC(F)(F)F)n3)cc2)CC1 [Compound 1008, N′-carbamoyl-4-(4-(4-(1-(4-chlorophenyl)cyclopropylamino)-6-(2,2,2-trifluoroethoxy)-1,3,5-triazin-2-ylamino)benzoyl)-N-cyclopentylpiperazine-1-carboximidamide] | 0.01 to 10 nM | 
9 | N#C/N=C(\NC1CCCC1)N1CCN(C(=O)c2ccc(Nc3nc(NC4(c5ccc(Cl)cc5)CC4)nc(OCC(F)(F)F)n3)cc2)CC1 [Compound 1009, 4-(4-(4-(1-(4-chlorophenyl)cyclopropylamino)-6-(2,2,2-trifluoroethoxy)-1,3,5-triazin-2-ylamino)benzoyl)-N′-cyano-N-cyclopentylpiperazine-1-carboximidamide] | 0.01 to 10 nM | 3.57 nM
10 | NC(=O)/N=C(\N1CCC1)N1CCN(C(=O)c2ccc(Nc3nc(NC4(c5ccc(Cl)cc5)CC4)nc(OCC(F)(F)F)n3)cc2)CC1 [Compound 1010, 1-(azetidin-1-yl(4-(4-(4-(1-(4-chlorophenyl)cyclopropylamino)-6-(2,2,2-trifluoroethoxy)-1,3,5-triazin-2-ylamino)benzoyl)piperazin-1-yl)methylene)urea] | 0.01 to 10 nM | 
11 | N#C/N=C(\N1CCC1)N1CCN(C(=O)c2ccc(Nc3nc(NC4(c5ccc(Cl)cc5)CC4)nc(OCC(F)(F)F)n3)cc2)CC1 [Compound 1011, N-(azetidin-1-yl(4-(4-(4-(1-(4-chlorophenyl)cyclopropylamino)-6-(2,2,2-trifluoroethoxy)-1,3,5-triazin-2-ylamino)benzoyl)piperazin-1-yl)methylene)cyanamide] | 0.01 to 10 nM | 
12 | NC(=O)/N=C(\N1CCCCC1)N1CCN(C(=O)c2ccc(Nc3nc(NC4(c5ccc(Cl)cc5)CC4)nc(OCC(F)(F)F)n3)cc2)CC1 [Compound 1012, 1-((4-(4-(4-(1-(4-chlorophenyl)cyclopropylamino)-6-(2,2,2-trifluoroethoxy)-1,3,5-triazin-2-ylamino)benzoyl)piperazin-1-yl)(piperidin-1-yl)methylene)urea] | 0.01 to 10 nM | 
13 | N#C/N=C(\N1CCCCC1)N1CCN(C(=O)c2ccc(Nc3nc(NC4(c5ccc(Cl)cc5)CC4)nc(OCC(F)(F)F)n3)cc2)CC1 [Compound 1013, N-((4-(4-(4-(1-(4-chlorophenyl)cyclopropylamino)-6-(2,2,2-trifluoroethoxy)-1,3,5-triazin-2-ylamino)benzoyl)piperazin-1-yl)(piperidin-1-yl)methylene)cyanamide] | 0.01 to 10 nM | 
14 | N=C1NCCN1C(=O)c1ccc(Nc2nc(NC3(c4ccc(Cl)cc4)CC3)nc(OCC(F)(F)F)n2)cc1 [Compound 1014, (4-(4-(1-(4-chlorophenyl)cyclopropylamino)-6-(2,2,2-trifluoroethoxy)-1,3,5-triazin-2-ylamino)phenyl)(2-iminoimidazolidin-1-yl)methanone] | 0.01 to 10 nM | 3.01 nM
15 | N=C(N)NC[C@H](NC(=O)c1ccc(Nc2nc(NC3(c4ccc(Cl)cc4)CC3)nc(OCC(F)(F)F)n2)cc1)C(=O)O [Compound 1015, (S)-2-(4-(4-(1-(4-chlorophenyl)cyclopropylamino)-6-(2,2,2-trifluoroethoxy)-1,3,5-triazin-2-ylamino)benzamido)-3-guanidinopropanoic acid] | 0.01 to 10 nM | 
16 | N=C(N)NCCC[C@H](NC(=O)c1ccc(Nc2nc(NC3(c4ccc(Cl)cc4)CC3)nc(OCC(F)(F)F)n2)cc1)C(N)=O [Compound 1016, (S)—N-(1-amino-5-guanidino-1-oxopentan-2-yl)-4-(4-(1-(4-chlorophenyl)cyclopropylamino)-6-(2,2,2-trifluoroethoxy)-1,3,5-triazin-2-ylamino)benzamide] | 0.01 to 10 nM | 0.352 nM

Row | Structure (SMILES) | EC50 (class symbol) | EC50 (numeric value)
17 | N=C(N)N1CCCN(C(=O)c2ccc(Nc3nc(NCc4ccc(Cl)cc4)nc(OCc4ccccc4)n3)cc2)CC1 [Compound 1017] | 10 to 1000 nM | 
18 | N=C(N)N1CCCN(C(=O)c2cccc(Nc3nc(NCc4ccc(Cl)cc4)nc(OCc4ccccc4)n3)c2)CC1 [Compound 1018] | 10 to 1000 nM | 
19 | N=C(N)NCCC[C@H](NC(=O)c1ccc(Nc2nc(NCc3ccc(Cl)cc3)nc(OCc3ccccc3)n2)cc1)C(=O)N[C@@H](CCC(N)=O)C(=O)O [Compound 1019] | 10 to 1000 nM | 
20 | N=C(N)NNC(=O)c1ccc(Nc2nc(NCc3ccc(Cl)cc3)nc(OCc3ccccc3)n2)cc1 [Compound 1020] | 10 to 1000 nM | 175 nM
21 | N=C(N)NNC(=O)c1cccc(Nc2nc(NCc3ccc(Cl)cc3)nc(OCc3ccccc3)n2)c1 [Compound 1021] | > 1000 nM | 
22 | N=C(N)NS(=O)(=O)c1ccc(NC(=O)c2ccc(Nc3nc(NCc4ccc(Cl)cc4)nc(OCc4ccccc4)n3)cc2)cc1 [Compound 1022] | 10 to 1000 nM | 62.5 nM
23 | N=C(N)NS(=O)(=O)c1ccc(NC(=O)c2cccc(Nc3nc(NCc4ccc(Cl)cc4)nc(OCc4ccccc4)n3)c2)cc1 [Compound 1023] | 10 to 1000 nM | 
24 | N=C(N)NCCCCNC(=O)c1ccc(Nc2nc(NCc3ccc(Cl)cc3)nc(OCc3ccccc3)n2)cc1 [Compound 1024] | 10 to 1000 nM | 
25 | N=C(N)NCCCCNC(=O)c1cccc(Nc2nc(NCc3ccc(Cl)cc3)nc(OCc3ccccc3)n2)c1 [Compound 1025] | > 1000 nM | 4480 nM
26 | N=C(N)N1CCN(C(=O)c2ccc(Nc3nc(NCc4ccc(Cl)cc4)nc(OCc4ccccc4)n3)cc2)CC1 [Compound 1026] | 10 to 1000 nM | 
27 | N=C(N)N1CCN(C(=O)c2cccc(Nc3nc(NCc4ccc(Cl)cc4)nc(OCc4ccccc4)n3)c2)CC1 [Compound 1027] | 10 to 1000 nM | 
28 | [2H]C([2H])(Oc1nc(Nc2ccc(C(=O)N[C@@H](CCCNC(=N)N)C(N)=O)cc2)nc(NC2(c3ccc(Cl)cc3)CC2)n1)C(F)(F)F [Compound 1028] | 0.01 to 10 nM | 
29 | [2H]C([2H])(Oc1nc(Nc2ccc(C(=O)N[C@H](CCCNC(=N)N)C(=O)N[C@@H](Cc3ccccc3)C(=O)O)cc2)nc(NC2(c3ccc(Cl)cc3)CC2)n1)C(F)(F)F [Compound 1029] | 0.01 to 10 nM | 
30 | [2H]C([2H])(Oc1nc(Nc2ccc(C(=O)N[C@@H](CCCNC(=N)N)C(=O)NCC(N)=O)cc2)nc(NC2(c3ccc(Cl)cc3)CC2)n1)C(F)(F)F [Compound 1030] | 0.01 to 10 nM | 
31 | [2H]C([2H])(Oc1nc(Nc2ccc(C(=O)N[C@@H](CCCNC(=N)N)C(=O)N[C@@H](CC(N)=O)C(N)=O)cc2)nc(NC2(c3ccc(Cl)cc3)CC2)n1)C(F)(F)F [Compound 1031] | 0.01 to 10 nM | 
